Measured values taken from patent publication US8691218B2, “Vermin extermination using lysozyme, salt or biological fragment thereof, or lysozyme-related peptide as an egg recognition pheromone” (National University Corporation Okayama University, priority 2007, dated 2014).

Test system: Reticulitermes speratus workers (worker termites)
Experiment: egg recognition activity: conveyance of coated mimetic eggs (glass beads) into the egg mass in a petri dish
Assay type: in vivo
Conditions: lysozyme samples tested on termites
Protocol: Egg recognition activities of a termite egg extract, lysozyme purified from the termite egg extract, a termite egg extract degraded by proteinase, egg white lysozyme, cellulase, a mixture of egg white lysozyme and cellulase, and 30% glycerin aqueous solution as a control were investigated by using Reticulitermes speratus workers (worker termites).
Each test samples was prepared as follows.
800 μL of ultrapure water was added to 400 mg of Reticulitermes speratus eggs in an Eppendorf tube, and homogenized, and subjected to ultrasonic treatment for 5 minutes, and centrifugation was performed at 15,000 rpm for 30 minutes. The supernatant was lyophilized, and 5.0 mg of the lyophilized powder was dissolved in 100 μL of 30% glycerin aqueous solution (termite egg extract). The termite egg extract prepared in the same manner as described above was purified by BioRex 70 (BioRad Laboratories, CA, USA) cation-exchange resin, and further, lysozyme fractions were isolated by Q-1 column chromatography (BioRad Laboratories, CA, USA) and Methyl HIC column chromatography (BioRad Laboratories, CA, USA), and 1.0 mg of lyophilized powder thereof was dissolved in 20 μL of 30% glycerin aqueous solution (lysozyme isolated from termite egg extract). […]

lysozyme derived from chicken egg white: egg white lysozyme (SIGMA) dissolved in 30% glycerin aqueous solution
egg recognition activity of termites: high activity
